# Results taken from US7538123B2, “Indole derivative having piperidine ring” (Eisai R & D Management Co., Ltd., priority 2004, dated 2009).
# Legend:
# [1] = biological target: T1, 5-HT1A receptor (Sus scrofa, UniProt A0A4X1UTF5); assay: Test regarding affinity for serotonin 1A receptor ([3H]MPPF binding inhibition); set-up: species or system swine
# T1 construct: from tissue; host or cells: swine hippocampus, membrane fraction
# T1 sequence (A0A4X1UTF5 1-422): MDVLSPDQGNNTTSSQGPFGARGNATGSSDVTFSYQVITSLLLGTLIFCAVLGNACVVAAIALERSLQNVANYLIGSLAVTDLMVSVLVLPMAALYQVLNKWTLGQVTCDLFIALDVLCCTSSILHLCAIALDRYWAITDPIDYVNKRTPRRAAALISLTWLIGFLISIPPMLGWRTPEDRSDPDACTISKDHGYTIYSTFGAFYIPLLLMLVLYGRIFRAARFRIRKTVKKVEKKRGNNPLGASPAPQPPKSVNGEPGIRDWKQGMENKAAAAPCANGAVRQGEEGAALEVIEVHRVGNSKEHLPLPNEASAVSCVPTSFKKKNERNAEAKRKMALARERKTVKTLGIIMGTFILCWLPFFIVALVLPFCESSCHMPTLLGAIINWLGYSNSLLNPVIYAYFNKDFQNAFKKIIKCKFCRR
# From the text: (1) The affinity of a test substance for a 5-HT1A receptor was examined by an inhibition experiment, in which the inhibitory effect of the test substance against the binding of [^3H]-4-(2′-methoxy)phenyl-1-(2′-(N-2″-pyridinyl)-p-fluorobenzamido)ethyl-piperazine (MPPF) that selectively binds to the 5-HT1A receptor in a swine hippocampal membrane fraction was examined. The 5-HT1A receptor that is a G-protein binding receptor becomes a G-protein binding state with addition of MgCl2. In contrast, it becomes a G-protein non-binding state with addition of guanylylimido diphosphate (Gpp(NH)p). […] Thus, both the affinity of a test substance to the receptor that was in a state of not binding to the G-protein and the affinity of the test substance to the receptor that was in a state of binding to the G-protein were obtained. […]
# A mixture (0.5 ml) used for incubation comprised an appropriate amount of the membrane fraction, a test substance with a desired concentration, MgCl2 (final concentration: 10 mM) or Gpp(NH)p (final concentration: 1 mm ), [^3H]MPPF (final concentration: 0.5 nM), dimethyl sulfoxide (final concentration: 1% (v/v)), and a 50 mM Tris-Hcl buffer (pH 7.4). […] Thereafter, radioactivity binding to the receptor was measured with a liquid scintillation counter. Non-specific binding was defined as binding detected in the presence of 10 μM WAY-100,635.
# [2] = biological target: T2, serotonin 1A receptor (Mus musculus, UniProt Q64264); assay: Antagonistic effect on serotonin 1A receptor agonist-induced hypothermia in mouse; assay type: in vivo; settings: for ED50: sc, 15 minutes before 8-hydroxy-dipropylaminotetralin 0.5 mg/kg sc, inhibition of hypothermia, CD-1 (ICR) male mice, read-out: ED50
# T2 construct: into the rectum of CD-1 (ICR) male mice (25-45 g); from tissue; host or cells: living CD-1 (ICR) male mice (whole animal)
# T2 sequence (Q64264 1-421): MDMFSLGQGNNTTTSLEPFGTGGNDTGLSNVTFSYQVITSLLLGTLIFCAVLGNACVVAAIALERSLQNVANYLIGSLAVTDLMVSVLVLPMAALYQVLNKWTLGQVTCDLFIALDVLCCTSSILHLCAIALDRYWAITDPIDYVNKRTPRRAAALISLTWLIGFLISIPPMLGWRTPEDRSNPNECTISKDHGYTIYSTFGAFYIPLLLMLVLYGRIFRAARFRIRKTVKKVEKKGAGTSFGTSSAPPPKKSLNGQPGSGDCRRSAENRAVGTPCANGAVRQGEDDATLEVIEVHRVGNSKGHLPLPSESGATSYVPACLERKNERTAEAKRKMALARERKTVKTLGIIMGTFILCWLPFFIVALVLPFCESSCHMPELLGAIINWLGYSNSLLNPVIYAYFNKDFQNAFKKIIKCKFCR
# Experimental: (1) A thermistor probe was inserted at a depth of approximately 2 cm into the rectum of CD-1 (ICR) male mice (25-45 g), so as to measure the body temperature thereof. Body temperature is decreased by subcutaneous administration of serotonin 1A receptor agonist (8-hydroxy-dipropylaminotetralin) 0.5 mg/kg. Since a serotonin 1A antagonist inhibits such action, the antagonistic effect of a test substance to a serotonin 1A receptor was evaluated using the inhibitory effect of the hypothermia as an index. A test substance was administered 15 minutes before the administration of the serotonin 1A agonist. A serotonin 1A partial agonist alone decreases the body temperature, depending on the degree of the agonistic action thereof. In addition, it has a weak antagonistic effect on 8-hydroxy-dipropylaminotetralin-induced hypothermia. (2) Results
ED50 [2],Structure (SMILES),also measured
> 1 mg/kg,"NC(=O)c1ccc2ccn(C3CCN(CCc4ccc(F)cc4)CC3)c2c1 [Compound A, reference compound]",affinity for 5-HT1A / receptor binding action (in words) [1]: has affinity; antagonistic effect against the 5-HT1A receptor / pharmacological effect (in words) ([2]; in vivo): weak
,"COc1cc2c(cc1CCN1CCC(n3ccc4ccc(C(N)=O)cc43)CC1)N(C)C(=O)OC2 [Compound 39, 1-{1-[2-(6-methoxy-methyl-oxo-1,4-dihydro-2H-benz[d][1,3]oxazin-7-yl)ethyl]piperidin-4-yl}-1H-indole-6-carboxamide]","L/H ratio ([1]; low affinity IC50 divided by high affinity IC50, 1 or smaller = no intrinsic activity, 2 or greater = intrinsic activity): 0.7"
0.1 mg/kg,"COc1ccc2c(c1CCN1CCC(n3ccc4ccc(C(N)=O)cc43)CC1)OC(C)(C)CC2=O [Compound 22, 1-{1-[2-(7-methoxy-2,2-dimethyl-4-oxochroman-8-yl)ethyl]piperidin-4-yl}-1H-indole-6-carboxamide]",
0.1 mg/kg,"COc1ccc2c(c1CCN1CCC(n3ccc4ccc(C(N)=O)cc43)CC1)CCC2=O [Compound 25, 1-{1-[2-(5-methoxy-1-oxoindan-4-yl)ethyl]piperidin-4-yl}-1H-indole-6-carboxamide]",
0.03 mg/kg,"CNC(=O)c1ccc2ccn(C3CCN(CCc4c(OC)ccc5c4OC(C)(C)CC5=O)CC3)c2c1 [Compound 20, 1-{1-[2-(7-methoxy-2,2-dimethyl-4-oxochroman-8-yl)ethyl]piperidin-4-yl}-N-methyl-1H-indole-6-carboxamide]",
0.07 mg/kg,"COc1cc2nc(C)oc2cc1CCN1CCC(n2ccc3ccc(C(N)=O)cc32)CC1 [Compound 8, 1-{1-[2-(5-methoxy-2-methylbenzoxazol-6-yl)ethyl]piperidin-4-yl}-1H-indole-6-carboxamide]",
0.53 mg/kg,"CNC(=O)c1ccc2ccn(C3CCN(CCc4cc5c(cc4OC)CCC(=O)N5C)CC3)c2c1 [Compound 58, 1-{1-[2-(6-methoxy-1-methyl-2-oxo-1,2,3,4-tetrahydroquinolin-7-yl)ethyl]piperidin-4-yl}-N-methyl-1H-indole-6-carboxamide]",
